Like-named read-outs stand apart in the source and are kept apart here.

The nature of data set [1]: Visual cytotoxicity in stationary HFF cells at time of plaque enumeration. To be noted: human, stationary human foreskin fibroblasts (HFF cells); visual cytotoxicity on HFF cells at time of HCMV plaque enumeration; read-out: 50% Inhibitory Concentration, Cytotoxicity (HFF). Type of data set: cell-based, human. The protocol:
(§1) KB cells (available from the American Type Culture Collection (ATCC) 12301 Parklawn Drive, […], Md. 20852 (ATCC CCL 17)), an established human cell line derived from an epidermal oral carcinoma, were grown in minimal essential medium (MEM) (Sigma) with Hanks salts (MEM(H)) supplemented with 5% fetal calf serum. Human foreskin fibroblasts (HFF cells) (provided by the University of Michigan Hospital) and African green monkey kidney cells (BSC-1) (ATTC CCL 26) cells were grown in MEM with Earl salts (MEM(E)) supplemented with 10% fetal bovine serum. Cells were passaged according to conventional procedures and as described in Shipman, C., Jr. et al. (1976) Antimicrob. Agents Chemother. Vol. 9:120 and incorporated herein by reference. Briefly, cells were passaged at 1:2 to 1:10 dilutions according to conventional procedures by using 0.05% trypsin plus 0.02% EDTA in a HEPES buffered salt solution. HFF cells were passaged only at 1:2 dilutions.
(§2) Two different methods were used to evaluate cytotoxicity of the compounds. First, cytotoxicity produced in stationary HFF cells was determined by microscopical examination of cells not affected by the virus used in the plaque assay. Second the effect of compounds on KB cells during two population doubling times was determined by crystal violet staining and spectrophotometric quantitation of dye eluted from stained cells. This method has been utilized for the analysis of ganciclovir and zidovudine (See Prichard, M. N. et al. Antiviral Res. (1991) Vol. 35:1060-1065).
(§3) (3) Visual cytotoxicity was scored on HFF cells at the time of HCMV plaque enumeration. Inhibition of KB cell growth was determined as described in the experimental. 3L was used as a positive control for the KB cytotoxicity assay.

Data set [2] is described as follows: Inhibition of KB cell growth (crystal violet staining). Type of data set: cell-based, human. To be noted: human, KB cells (human epidermal oral carcinoma line); inhibition of KB cell growth; read-out: 50% Inhibitory Concentration, Cytotoxicity (KB). The protocol: as §1, §2, §3
Another data set deals with HSV-1. In words: HSV-1 ELISA assay. Type of data set: cell-based, HSV-1 (KOS strain). The settings on record: read-out: 50% Inhibitory Concentration, Antiviral Activity (ELISA). The method, then: (§4) A plaque purified isolate, Po, of the Towne strain of HCMV was used in all experiments and was a gift of Dr. Mark Stinski, University of Iowa. The KOS strain of HSV-1 was used and was provided by Dr. Sandra K. Weller, University of Connecticut. Stock preparations of HCMV and HSV-1 were prepared and titered as known to those of skill and the art and described in Turk, S. R. et al. (1987) Antimicrob. Agents Chemother. Vol. 31:544-550 and Shipman, C., Jr., et al. (1990) J. Virol. Methods Vol. 28:101-106, each incorporated herein by reference.
(§5) HCMV plaque reduction experiments were performed with monolayer cultures of HFF cells by a procedure similar to that referenced above for titration of the viruses and described in Devivar, R. V. et al. (1994) J. Med. Chem. Vol. 37:2942-2949. Activity of compounds against HSV-1 was evaluated using an ELISA assay.
ELISA techniques according to standard procedures were also used to determine activity against HSV-1. Drug effects were calculated as a percentage of the reduction in virus titers in the presence of each drug concentration compared to the titer obtained in the absence of drug. Ganciclovir was used as a positive control in all experiments.
(§6) Dose-response relationships can be used to compare drug effects. These are constructed by linearly regressing the percent inhibition of parameters derived in the preceding sections against log drug concentrations. The 50 inhibitory (I50) concentrations were calculated from the regression lines using the methods described by Goldstein. See Goldstein, A., Biostatistics: An Introductory Text, MacMillan, New York, pp. 156-161 (1964), incorporated herein by reference.
(§7) (2) A plaque assay was used to quantitate anti HCMV activity, an ELISA assay was used to quantitate activity against HSV-1. DHPG (ganciclovir) was used as a positive control for the HCMV assay.
(In general: An ELISA detects its analyte on a solid surface through an enzyme-linked reagent.)

The subject of the next data set is HCMV. In words: HCMV plaque (focus) reduction assay in HFF cells. Type of data set: cell-based, HCMV (Towne strain). To be noted: HCMV plaque assay, HFF cells, averages from two or more experiments, read-out: 50% Inhibitory Concentration, Antiviral Activity (plaque). The method, then:
as §4, §5
The effect of compounds of the replication of HCMV was measured using a plaque (focus) reduction assay. For the former, HFF cells in 24-well culture dishes were infected with approximately 50 p.f.u. of HCMV per well using the procedures detailed above. Compounds dissolved in growth medium were added in four to six selected concentrations to duplicate wells following virus adsorption. Following incubation at 37° C. for 7 to 10 days, cell sheets were fixed, stained and microscopic plaques were enumerated as described above. Drug effects were calculated as a percentage of reduction in number of plaques in the presence of each drug concentration compared to the number observed in the absence of drug. DHPG (ganciclovir) was used as a positive control in all experiments.
as §6, §7

Another data set concerns HFF cells. In words: Visual cytotoxicity in stationary HFF cells at time of plaque enumeration. Type of data set: cell-based, human. The settings on record: visual cytotoxicity on HFF cells at time of HCMV plaque enumeration; read-out: 50% Inhibitory Concentration, Cytotoxicity (HFF). The protocol:
as §1, §2, §3

For the next data set, the system named is KB cells. In words: Inhibition of KB cell growth (crystal violet staining). Type of data set: cell-based, human. The settings on record: for IC50: inhibition of KB cell growth, read-out: 50% Inhibitory Concentration, Cytotoxicity (KB). The protocol:
as §1, §2, §3

The test system of another data set is L1210 cells. In words: Antiproliferative activity: growth of L1210 cells. Type of data set: cell-based, mouse. The protocol:
Antiproliferative activity was evaluated by measuring the effect of the compounds on the growth of L1210 cells, a mouse leukemia cell line which is generally available and can be obtained from Cancer Chemotherapy Center, Japanese Foundation for Cancer Research. Antiproliferative activity was measured using conventional procedures and as described in Wotring, L. L. and Townsend, L. B., (1979) Cancer Res. Vol. 39:3018-3023 and Cory, A. H. et al. (1991) Cancer Comm. Vol. 3:207-212, each incorporated herein by reference.
(8) The concentration required to decrease the final growth rate of L1210 cells to half of the control rate. All values are averages from two or more experiments.

The mark [3] stands for this setting: Human alphaherpesvirus 1, averages from two or more experiments.
[4] abbreviates: averages from two or more experiments.

As for `OC[C@H]1O[C@@H](n2c(Cl)nc3cc(Cl)c(Cl)cc32)[C@H](O)[C@@H]1O` [Compound 1, 2,5,6-trichloro-1-(β-D-ribofuranosyl)benzimidazole, reference compound], the IC50 in data set [1] was 238 µM; in the data set on HSV-1 (setting [3]), greater than 100 µM; with HCMV (Human betaherpesvirus 5, HFF), 2.76 µM. The IC50 at 2 population doubling times in data set [2] is 210 µM.
Turning to `CC(=O)O[C@@H]1[C@H](OC(C)=O)[C@@H](CF)O[C@H]1n1c(Cl)nc2cc(Cl)c(Cl)cc21` [Compound 12a, 2,5,6-trichloro-1-(2′,3′-di-O-acetyl-5′-deoxy-5′-fluoro-β-D-ribofuranosyl)benzimidazole], the IC50 in the data set with HFF cells is 32 µM; in the data set with KB cells, 100 µM; in the data set on HSV-1 (setting [4]) it was greater than 100 µM; with HCMV, 0.6 µM. The “cytotoxicity in growing KB cells (in words)” value in the data set with KB cells is “little or no cytoxicity”.
For `CC(=O)O[C@@H]1[C@H](OC(C)=O)[C@@H](CCl)O[C@H]1n1c(Cl)nc2cc(Cl)c(Cl)cc21` [Compound 12b, 2,5,6-trichloro-1-(2′,3′-di-O-acetyl-5′-deoxy-5′-chloro-β-D-ribofuranosyl)benzimidazole], the IC50 in the data set on HFF cells is 32 µM; in the data set on KB cells, 90 µM; with HSV-1 (setting [4]) it was greater than 100 µM; in the data set with HCMV, 1.4 µM.
For `CC(=O)O[C@@H]1[C@H](OC(C)=O)[C@@H](CBr)O[C@H]1n1c(Cl)nc2cc(Cl)c(Cl)cc21` [Compound 12c, 2,5,6-trichloro-1-(2′,3′-di-O-acetyl-5′-deoxy-5′-bromo-β-D-ribofuranosyl)benzimidazole], in that order: 32 µM, 60 µM, greater than 100 µM and 2.7 µM.
For `CC(=O)O[C@@H]1[C@H](OC(C)=O)[C@@H](CI)O[C@H]1n1c(Cl)nc2cc(Cl)c(Cl)cc21` [Compound 12d, 2,5,6-trichloro-1-(2′,3′-di-O-acetyl-5′-deoxy-5′-iodo-β-D-ribofuranosyl)benzimidazole], in that order: 32 µM, 60 µM, greater than 100 µM and 2.5 µM.
`O[C@@H]1[C@H](O)[C@@H](CF)O[C@H]1n1c(Cl)nc2cc(Cl)c(Cl)cc21` [Compound 13a, 2,5,6-trichloro-1-(5′-deoxy-5′-fluoro-β-D-ribofuranosyl)benzimidazole]: the IC50 in the data set on L1210 cells (concentration required to decrease final growth rate of L1210 cells to half of control rate, read-out: 50% Inhibitory Concentration, Antiproliferative Activity) is greater than 100 µM; in the data set with HFF cells, 32 µM; with KB cells, greater than 100 µM; in the data set on HSV-1 (setting [4]), greater than 100 µM; in the data set with HCMV, 0.5 µM. The “antiproliferative effect in L1210 cells (in words)” value in the data set with L1210 cells (statement in text on Table 2) was “no antiproliferative effect”. Further, the “cytotoxicity in growing KB cells (in words)” value with KB cells is reported as “little or no cytoxicity”.
As for `O[C@@H]1[C@H](O)[C@@H](CBr)O[C@H]1n1c(Cl)nc2cc(Cl)c(Cl)cc21` [Compound 13c, 2,5,6-trichloro-1-(5′-deoxy-5′-bromo-β-D-ribofuranosyl)benzimidazole], the IC50 in the data set on HFF cells was 32 µM; in the data set on KB cells it was 90 µM; in the data set with HSV-1 (setting [4]) it was greater than 100 µM; with HCMV, 1.5 µM.
Turning to `O[C@@H]1[C@H](O)[C@@H](CI)O[C@H]1n1c(Cl)nc2cc(Cl)c(Cl)cc21` [Compound 13d, 2,5,6-trichloro-1-(5′-deoxy-5′-iodo-β-D-ribofuranosyl)benzimidazole], the IC50 in the data set on HFF cells was found to be 32 µM; in the data set with HCMV it was 3.2 µM.
As for `CC(=O)O[C@@H]1[C@H](OC(C)=O)[C@@H](CN=[N+]=[N-])O[C@H]1n1c(Cl)nc2cc(Cl)c(Cl)cc21` [Compound 16a, 2,5,6-trichloro-1-(2′,3′-di-O-acetyl-5′-deoxy-5′-azido-β-D-ribofuranosyl)benzimidazole], the IC50 in the data set with HFF cells is 32 µM; with KB cells it was 70 µM; in the data set with HSV-1 (setting [4]), greater than 100 µM; in the data set with HCMV it was 1.5 µM.
For `CSC[C@H]1O[C@@H](n2c(Cl)nc3cc(Cl)c(Cl)cc32)[C@H](OC(C)=O)[C@@H]1OC(C)=O` [Compound 16b, 2,5,6-trichloro-1-(2′,3′-di-O-acetyl-5′-deoxy-5′-methylthio-β-D-ribofuranosyl) benzimidazole] the same measures were 32 µM, greater than 100 µM, greater than 100 µM and 4.8 µM.
For the compound `CC1(C)O[C@@H]2[C@H](O1)[C@@H](CO)O[C@H]2n1c(Cl)nc2cc(Cl)c(Cl)cc21` [Compound 18, 2,5,6-Trichloro-1-(2′,3′-O-isopropylidene-β-D-ribofuranosyl)benzimidazole], the IC50 with HFF cells is greater than 100 µM; with HCMV, 12.4 µM.
On to `CC1(C)OC2C(CN=[N+]=[N-])OC(n3c(Cl)nc4cc(Cl)c(Cl)cc43)C2O1` [Compound 19a, 2,5,6-Trichloro-1-(2′,3′-O-isopropylidene-5′-deoxy-5′-azido-β-D-ribofuranosyl) benzimidazole], for which the results for the IC50 with HFF cells and in the data set with HCMV were 32 µM and 10.9 µM, respectively.
In the case of `CC1(C)O[C@@H]2[C@H](O1)[C@@H](CCl)O[C@H]2n1c(Cl)nc2cc(Cl)c(Cl)cc21` [Compound 19b, 2,5,6-Trichloro-1-(2′,3′-O-isopropylidene-5′-deoxy-5′-chloro-β-D-ribofuranosyl) benzimidazole], the IC50 in the data set on HFF cells was 66 µM; in the data set on KB cells it was 100 µM; with HSV-1 (setting [4]), greater than 100 µM; in the data set on HCMV, 13.5 µM.
As to `Nc1nc(O)c2ncn(COC(CO)CO)c2n1` [DHPG, ganciclovir, reference compound], the IC50 in data set [1] is greater than 100 µM; with HSV-1 (setting [3]), 3.5 µM. Further, in data set [2], the IC50 at 2 population doubling times is greater than 100 µM.

The values above are taken from patent publication US20010011075A1, “5'-SUBSTITUTED-RIBOFURANOSYL BENZIMIDAZOLES AS ANTIVIRAL AGENTS” (priority 1999, published 2001).
